Experimental data published in patent publication EP0418064B1, “Naphthalene and tetrahydronaphthalene gem-diphosphonate derivatives” (SYMPHAR S.A., priority 1989, dated 1991).

These molecules were tested on Rat liver homogenates (assay: Antioxidant activity: FeSO₄-induced peroxide production in rat liver homogenates (thiobarbituric acid reaction)). Settings: rat liver homogenate incubated with FeSO₄; peroxide determined by thiobarbituric acid reaction, malonaldehyde as standard; read-out: IC₅₀.
Assay type: biochemical
Method: Rat liver homogenates were prepared according to Fraga, C.G. et al. Free Radicals Biol. Med., 4, 155, 1988 and Kornburst D.J. et al. Lipids 15, 315, 1980.
Peroxides were generated by incubation of the homogenate with the FeSO₄ as described by Quitanilha A.T. et al. Ann. N.Y., Acad. Sci. 393, 32, 1982.
Compounds to be tested for their antioxidant activity were dissolved in DMSO and added to the incubation mixture. The amount of peroxide produced was determined by the thiobarbituric acid reaction using malonaldehyde as standard.

SMILES	IC50 [µM]
CCOP(=O)(OCC)C(=Cc1cc(C(C)(C)C)c(O)c2ccccc12)P(=O)(OCC)OCC [Example 1, Tetraethyl 2-[3-t-butyl-4-hydroxynaphthyl]ethenylidene-1,1-diphosphonate]	1.5
CC(C)OP(=O)(OC(C)C)C(=Cc1cc(C(C)(C)C)c(O)c2ccccc12)P(=O)(OC(C)C)OC(C)C [Example 2, Tetraisopropyl 2-[3-t-butyl-4-hydroxynaphthyl]ethenylidene-1,1-diphosphonate]	0.7
CCOP(=O)(OCC)C(=Cc1cc(C(C)(C)C)c(O)c2c1CCCC2)P(=O)(OCC)OCC [Example 6, Tetraethyl 2-(3-tert-butyl-4-hydroxy-5,6,7,8-tetrahydronaphthyl)-ethenylidene-1,1-diphosphonate]	7
CC(C)OP(=O)(OC(C)C)C(=Cc1cc(C(C)(C)C)c(O)c2c1CCCC2)P(=O)(OC(C)C)OC(C)C [Example 8, Tetraisopropyl 2-[3-tert-butyl-4-hydroxy-5,6,7,8-tetrahydronaphthyl]-ethenylidene-1,1-diphosphonate]	2.5
